From patent US11536729B2, “Method of identifying novel protein aggregation inhibitors based on chemical kinetics” (Cambridge Enterprise Limited, priority 2016, dated 2022)
Entries after “also recorded” stand apart in the source; their conditions may differ.

What was measured:
[1] = target: T1, Aβ42 (Homo sapiens, UniProt P05067); assay: ThT Aβ42 aggregation kinetics with 10% pre-formed fibril seeds (elongation dominant); type: biochemical; conditions: 2 μM Aβ42, 10-fold excess
T1 construct: The recombinant Aβ (M1-42) peptide; made in house; host or cells: E. coli BL21 Gold (DE3)
Method: Samples were then collected from the wells into low-binding tubes and sonicated for 2 min in a sonicator bath at room temperature. Under the considered conditions (i.e. 4 μM Aβ42), the monomer concentration is negligible at equilibrium (31). The final concentration of fibrils, in monomer equivalents, was considered equal to the initial concentration of monomer. Fibrils were then added to freshly prepared monomer in order to reach either 5% or 10% fibrils final concentration.
Assays were initiated by placing the 96-well plate at 37° C. under quiescent conditions in a plate reader (Fluostar Omega, Fluostar Optima or Fluostar Galaxy, BMGLabtech, Offenburg, Germany). The ThT fluorescence was measured through the bottom of the plate with a 440 nm excitation filter and a 480 nm emission filter. The ThT fluorescence was followed for three repeats of each sample. […]

[2] = test system: C. elegans GMC101 (Aβ-worm); assay: C. elegans motility assay (body bends), Aβ-worm model; type: in vivo, Caenorhabditis elegans
Method: Standard conditions were used for Caenorhabditis elegans propagation at 20° C. (53). Briefly, animals were synchronized by hypochlorite bleaching, hatched overnight in M9 buffer, and subsequently cultured on nematode growth medium (NGM, USP agar) plates seeded with the E. coli strain OP50. Saturated cultures of OP50 were grown by inoculating 50 mL of LB medium with OP50 and incubating the culture for 16 h at 37° C. NGM plates were seeded with bacteria by adding 350 μl of saturated OP50 to each plate and leaving the plates at room temperature for 2-3 days. On day 3 after synchronization, animals were placed on NGM plates containing 5-fluoro-2′deoxy-uridine (FUDR) ([…], unless stated otherwise) to inhibit growth of offspring.
The following strains were used: dvls100[unc-54p::A-beta-1-42::unc-54 3′-UTR+mtl-2p::GFP] (GMC101). mtl-2p::GFP produces constitutive expression of GFP in intestinal cells. unc-54p::A-beta-1-42 expresses full-length human Aβ42 peptide in bodywall muscle cells that aggregates in vivo. Shifting L4 or young adult animals from 20 C° to 25 C° causes paralysis dvls15[pPD30.38 (unc-54 vector)+mtl-2::GFP (pCL26)] (CL2122), control strain for GMC101 (57). Phenotype apparently WT. C. elegans var Bristol (N2). Generation time is about 3 days. Brood size is about 350. Isolated from mushroom compost near Bristol, England. […]
All populations were cultured at 20° C. and developmentally synchronized from a 4 h egg-lay. At 64-72 h post egg-lay (time zero) individuals were shifted to 23° C. or 25° C., and body movement assessed over time as indicated. At different ages, animals were washed out of the plates with M9 and spread over an un-seeded 6 cm plate, after which their movements were recorded at 30 fps using a home-made microscopic setup, at 0.75× magnification, for 30 s or 1 min. 200 animals were counted per experiment unless stated otherwise. […]
Videos were elaborated using ImageJ (National Institutes of Health, Bethesda, Md., USA), and body bends were quantified using the wrMTrck plug-in (http://www.phage.dk/plugins/wrmtrck.html), developed by Jesper Søndergaard Pedersen.

[3] = test system: C. elegans GMC101 (Aβ-worm); assay: NIAD-4 staining of amyloid aggregates in living C. elegans; type: in vivo, Caenorhabditis elegans
Method: Live transgenic animals were incubated with NIAD-4 over a range of concentrations and times, and it was empirically determined that incubation of living animals with 1 μM NIAD-4 (0.1% DMSO in M9 buffer) for four hours at room temperature gave robust and reproducible staining. After staining, animals were Let recover on NGM plates for about 24 hrs to allow destaining via normal metabolism. Stained animals were mounted on 2% agarose pads containing 40 mM NaN3 as anaesthetic on glass microscope slides for imaging. Images were captured with a Zeiss Axio Observer.D1 fluorescence microscope (Carl Zeiss Microscopy GmbH, Jena, Germany) with a 20× objective and a 49004 ET-CY3/TRITC filter (Chroma Technology Corp, Bellows Falls, Vt., USA). Fluorescence intensity was calculated using ImageJ software (National Institutes of Health, Bethesda, Md., USA), and then normalized as the corrected total cell fluorescence (CTCF). Only the head region was considered, due to the high background signal in the guts. All experiments were carried out in triplicate and the data from one representative experiment are shown. Statistical significance was determined using t tests.

T1 sequence (P05067 672-713 limits assumed): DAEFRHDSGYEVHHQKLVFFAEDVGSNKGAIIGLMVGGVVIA

C=C(c1ccc(C(=O)O)cc1)c1cc2c(cc1C)C(C)(C)CCC2(C)C [bexarotene]
effect on aggregation kinetics with 10% fibril seeds [1]: no effect was observed | motility (frequency of body bends) of Aβ-worms ([2]; 10 μM, two bursts at L1 and L4 larval stages): maintained completely; also recorded: Complete recovery | motility of Aβ-worms, concentration dependence ([2]; 5 to 10 μM added at larval stages): concentration-dependent maintenance | effect on motility of Aβ-worms when added only at day 2 ([2]; added only at day 2): did not show any detectable effect | time for which formation of Aβ42 fibrils was suppressed ([3]; 10 μM): 9 days of adulthood | level of aggregates (NIAD-4 fluorescence) ([3]; Aβ-worm model in the presence of bexarotene): essentially no aggregates being detected
